Data reported in BindingDB's records for patent US20230295157 (Janssen Pharmaceutica, 2023).

What was measured:
Coagulation factor XI = Coagulation factor XI (Homo sapiens, UniProt P03951); test: Factor XIa Inhibition Assay Utilizing a Fluorophore-Quencher Pair Peptide Substrate
From the text: A fluorescence intensity (FLINT) based assay was used to monitor inhibition of Factor XIa. The peptide substrate, 5Fam-[…]-K5Tamra (purchased from New England Peptide) was chosen based on the FXI sequence. Conversion of zymogen FXI to its activated form, FXIa, occurs by proteolytic cleavage by […] at two sites, Arg146 and Arg180. The custom peptide used in this assay was based on the Arg146 cleavage site of FXI. The peptide substrate was designed with a fluorophore-quencher pair, where the fluorescence is quenched until FXIa cleaves the 8-mer peptide after the Arg residue. […] The Factor XIa FLINT assay was used with the following 5Fam-[…]-K5Tamra assay buffer: 50 mM Tris, pH 7.5, 100 mM NaCl, 5 mM CaCl2), 0.1 mg/mL BSA, 0.03% CHAPS. Assay buffer was prepared by mixing all ingredients fresh. 5Fam-[…]-K5Tamra peptide substrate was first prepared at 10 mM in 100% DMSO, then diluted to 3 mM in 100% DMSO.

Plasma kallikrein = Plasma kallikrein (Homo sapiens, UniProt P03952); test: Kallikrein Inhibition Assay Utilizing a Quenched AMC Peptide Substrate
Sequence of Plasma kallikrein (P03952 20-390 limits assumed): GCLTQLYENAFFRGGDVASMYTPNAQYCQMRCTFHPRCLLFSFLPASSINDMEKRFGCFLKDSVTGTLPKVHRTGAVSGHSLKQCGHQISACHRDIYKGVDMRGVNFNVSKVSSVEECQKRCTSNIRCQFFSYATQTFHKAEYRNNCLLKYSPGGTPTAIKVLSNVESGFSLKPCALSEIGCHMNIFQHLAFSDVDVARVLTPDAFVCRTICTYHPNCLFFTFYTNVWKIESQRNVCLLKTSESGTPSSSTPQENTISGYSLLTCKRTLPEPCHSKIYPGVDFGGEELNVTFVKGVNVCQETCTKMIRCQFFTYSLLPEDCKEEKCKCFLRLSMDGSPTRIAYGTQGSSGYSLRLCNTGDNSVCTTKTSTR
Sequence of Plasma kallikrein (P03952 391-638 limits assumed): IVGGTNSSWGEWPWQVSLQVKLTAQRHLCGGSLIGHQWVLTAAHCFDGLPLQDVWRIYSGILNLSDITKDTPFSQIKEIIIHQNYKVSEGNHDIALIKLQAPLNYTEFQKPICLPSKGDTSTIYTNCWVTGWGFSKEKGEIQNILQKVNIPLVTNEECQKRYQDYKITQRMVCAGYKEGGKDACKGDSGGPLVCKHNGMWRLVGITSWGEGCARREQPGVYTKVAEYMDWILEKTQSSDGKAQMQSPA
Procedure: A fluorescence intensity (FLINT) based assay was used to monitor inhibition of human plasma kallikrein. The peptide substrate, Z-Gly-Pro-Arg-AMC (Purchased from Bachem; Catalog #I-1150) was chosen based on its relatively low KM for kallikrein which enables running the assay at lower substrate concentrations to control background fluorescence. The kinetic parameters for this substrate were determined by fitting titration data to the Michaelis-Menten equation yielding a KM=40 μM, kcat=0.76 s−1, and kcat/KM=18932 M−1s−1. The Kallikrein FLINT assay was used with the following Z-Gly-Pro-Arg-AMC assay buffer: 50 mM Tris, pH 7.5, 100 mM NaCl, 5 mM CaCl2), 0.1 mg/mL BSA, 0.03% CHAPS. Assay buffer was prepared by mixing all ingredients fresh. 2×Z-Gly-Pro-Arg-AMC peptide substrate was prepared by diluting 10 mM stock into 1×assay buffer for a 100 μM working concentration (50 μM final concentration). The 2×kallikrein stock solution was prepared by diluting 14.76 μM stock in 1×assay buffer for a 4 nM working stock solution (2 nM final concentration).

Sequence of Coagulation factor XI (P03951 19-387 limits assumed): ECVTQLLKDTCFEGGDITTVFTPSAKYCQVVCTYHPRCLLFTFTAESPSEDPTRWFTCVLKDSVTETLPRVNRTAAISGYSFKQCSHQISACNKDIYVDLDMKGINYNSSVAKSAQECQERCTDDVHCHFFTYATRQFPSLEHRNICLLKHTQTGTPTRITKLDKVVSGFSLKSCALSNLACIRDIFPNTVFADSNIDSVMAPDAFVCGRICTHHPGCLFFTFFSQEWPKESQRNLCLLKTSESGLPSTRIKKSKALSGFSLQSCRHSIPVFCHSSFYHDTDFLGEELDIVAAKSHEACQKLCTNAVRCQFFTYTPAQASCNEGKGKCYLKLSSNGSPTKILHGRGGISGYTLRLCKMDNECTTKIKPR
Sequence of Coagulation factor XI (P03951 388-625 limits assumed): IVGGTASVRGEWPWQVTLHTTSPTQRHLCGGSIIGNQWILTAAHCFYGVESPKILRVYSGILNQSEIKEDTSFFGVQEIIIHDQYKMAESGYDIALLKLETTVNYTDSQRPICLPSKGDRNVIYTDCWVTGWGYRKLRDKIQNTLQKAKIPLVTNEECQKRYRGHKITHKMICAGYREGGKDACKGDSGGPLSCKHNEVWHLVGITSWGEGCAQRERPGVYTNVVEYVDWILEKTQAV

SMILES	IC50 (Coagulation factor XI)	IC50 (Plasma kallikrein)
C[C@H](CO)Oc1nccc(-c2cnc([C@@H]3CC[C@H]4CC(c5c(-n6cnnn6)ccc(Cl)c5F)=CC(=O)N43)[nH]2)c1F (relative stereo) [US20230295157, Example 169]	42.3 nM	40.1 nM
O=C1C=C(c2c(-n3cnnn3)ccc(Cl)c2F)C[C@H]2CC[C@@H](c3nc(-c4csc(CO)n4)c[nH]3)N12 [US20230295157, Example 22]	47.8 nM	103 nM
NC(=O)c1ccc(-c2cnc([C@@H]3CC[C@@H]4CC(c5c(-n6cnnn6)ccc(Cl)c5F)=CC(=O)N43)[nH]2)cc1F [US20230295157, Example 197]	4.1 nM	6 nM
